Results taken from patent publication US20170190671A1, “BIS(ARYL)CATECHOL DERIVATIVES AS HERBICIDES” (E I DU PONT DE NEMOURS AND COMPANY, priority 2014, published 2017).

Assays:
Settings in all cases: scale 0 to 100
[1] = system: oilseed rape (Brassica napus); experiment: Test D postemergence; type: in vivo
Procedure, shortened: (§1)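 Seeds planted in silt loam soil and sprayed preemergence with test chemical in a non-phytotoxic solvent mixture with surfactant; postemergence plants grown in peat/vermiculite medium and treated at 2–18 cm (1- to 4-leaf stage). Visual rating versus untreated controls after 14 to 21 days, 0 (no effect) to 100 (complete control).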

[2] = system: green foxtail (Setaria viridis); experiment: Test D postemergence; type: in vivo
Procedure, shortened: as §1

[3] = system: Italian ryegrass (Lolium multiflorum); experiment: Test D postemergence; type: in vivo
Procedure, shortened: as §1

[4] = system: winter wheat (Triticum aestivum); experiment: Test D postemergence; type: in vivo
Procedure, shortened: as §1

[5] = system: Russian thistle (Salsola kali); experiment: Test D postemergence; type: in vivo
Procedure, shortened: as §1

[6] = system: chamomile (scentless chamomile, Matricaria inodora); experiment: Test D postemergence; type: in vivo
Procedure, shortened: as §1

[7] = system: galium (catchweed bedstraw, Galium aparine); experiment: Test D postemergence; type: in vivo
Procedure, shortened: as §1

[8] = system: wild mustard (Sinapis arvensis); experiment: Test D postemergence; type: in vivo
Procedure, shortened: as §1

[9] = system: downy bromegrass (Bromus tectorum); experiment: Test D postemergence; type: in vivo
Procedure, shortened: as §1

[10] = system: field poppy (Papaver rhoeas); experiment: Test D postemergence; type: in vivo
Procedure, shortened: as §1

[11] = system: bluegrass (annual bluegrass, Poa annua); experiment: Test D postemergence; type: in vivo
Procedure, shortened: as §1

[12] = system: windgrass (Apera spica-venti); experiment: Test D postemergence; type: in vivo
Procedure, shortened: as §1

wild oat (Avenafatua) = experiment: Test D preemergence; type: in vivo, Avena fatua
Description: Seeds of plant species selected from bluegrass (annual bluegrass, Poa annua), blackgrass (Alopecurus myosuroides), canarygrass (Phalaris minor), chickweed (common chickweed, Stellaria media), cutleaf geranium (Geranium dissectum), galium (catchweed bedstraw, Galium aparine), downy bromegrass (Bromus tectorum), field poppy (Papaver rhoeas), field violet (Viola arvensis), green foxtail (Setaria viridis), deadnettle (henbit deadnettle, Lamium amplexicaule), Italian ryegrass (Lolium multiflorum), kochia (Kochia scoparia), lambsquarters (Chenopodium album), oilseed rape (Brassica napus), pigweed (Amaranthus retroflexus), chamomile (scentless chamomile, Matricaria inodora), Russian thistle (Salsola kali), speedwell (bird's-eye speedwell, Veronica persica), spring barley (Hordeum vulgare), spring wheat (Triticum aestivum), wild buckwheat (Polygonum convolvulus), wild mustard (Sinapis arvensis), wild oat (Avenafatua), wild radish (Raphanus raphanistrum), windgrass (Apera spica-venti), winter barley (Hordeum vulgare), and winter wheat (Triticum aestivum) were planted into a silt loam soil and treated preemergence with test chemicals formulated in a non-phytotoxic solvent mixture which included a surfactant.
At the same time, these species were planted in pots containing Redi-Earth® planting medium (Scotts Company, 14111 Scottslawn Road, Marysville, Ohio 43041) comprising spaghnum peat moss, vermiculite, wetting agent and starter nutrients and treated with postemergence applications of the test chemicals formulated in the same manner. Plants ranged in height from 2 to 18 cm (1- to 4-leaf stage). Treated plants and controls were maintained in a controlled growth environment for 14 to 21 days after which time all species were compared to controls and visually evaluated. Plant response ratings, summarized in Table D, are based on a scale of 0 to 100 where 0 is no effect and 100 is complete control. A dash (-) response means no test result.

[13] = system: arrowleaf sida (Sida rhombifolia); experiment: Test E postemergence; type: in vivo
Description: Seeds of plant species selected from corn (Zea mays), soybean (Glycine max), velvetleaf (Abutilon theophrasti), cocklebur (common cocklebur, Xanthium strumarium), lambsquarters (Chenopodium album), wild poinsettia (Euphorbia heterophylla), palmer pigweed (Amaranthus palmeri), waterhemp (common waterhemp, Amaranthus rudis), surinam grass (Brachiaria decumbens), large (Lg) crabgrass (Digitaria sanguinalis), Brazilian crabgrass (Digitaria horizontalis), fall panicum (Panicum dichotomiflorum), giant foxtail (Setaria faberii), green foxtail (Setaria viridis), goosegrass (Eleusine indica), johnsongrass (Sorghum halepense), ragweed (common ragweed, Ambrosia elatior), barnyardgrass (Echinochloa crus-galli), sandbur (southern sandbur, Cenchrus echinatus), arrowleaf sida (Sida rhombifolia), Italian ryegrass (Lolium multiflorum), dayflower (Virginia (VA) dayflower, Commelina virginica), field bindweed (Convolvulus arvensis), morningglory (Ipomoea coccinea), nightshade (eastern black nightshade, Solanum ptycanthum), kochia (Kochia scoparia), yellow nutsedge (Cyperus esculentus), horseweed (Conyza canadensis), and hairy beggarticks (Bidens pilosa), were planted into a silt loam soil and treated preemergence with test chemicals formulated in a non-phytotoxic solvent mixture which included a surfactant.
At the same time, plants from these crop and weed species and also waterhemp_RES1, (ALS & Triazine resistant common waterhemp, Amaranthus rudis), and waterhemp_RES2, (ALS & HPPD resistant common waterhemp, Amaranthus rudis) were planted in pots containing Redi-Earth® planting medium (Scotts Company, 14111 Scottslawn Road, Marysville, Ohio 43041) comprising spaghnum peat moss, vermiculite, wetting agent and starter nutrients were treated with postemergence applications of test chemicals formulated in the same manner. Plants ranged in height from 2 to 18 cm for postemergence treatments (1- to 4-leaf stage). Treated plants and controls were maintained in a greenhouse for 14 to 21 days, after which time all species were compared to controls and visually evaluated. Plant response ratings, summarized in Table E, are based on a scale of 0 to 100 where 0 is no effect and 100 is complete control. A dash (-) response means no test result.

Compound: Fc1cccc(Oc2ncc(C(F)(F)F)cn2)c1Oc1ncc(Cl)cn1 [Compound 42, 5-chloro-2-[2-fluoro-6-[[5-(trifluoromethyl)-2-pyrimidinyl]oxy]phenoxy]pyrimidine]
- Plant response rating, Oilseed Rape ([1]; 16 g ai/ha): 75
- Plant response rating, Oilseed Rape ([1]; 31 g ai/ha): 75
- Plant response rating, Oilseed Rape ([1]; 62 g ai/ha): 85
- Plant response rating, Oilseed Rape ([1]; 125 g ai/ha): 95
- Plant response rating, Foxtail, Green ([2]; 16 g ai/ha): 10
- Plant response rating, Foxtail, Green ([2]; 31 g ai/ha): 15
- Plant response rating, Foxtail, Green ([2]; 62 g ai/ha): 60
- Plant response rating, Foxtail, Green ([2]; 125 g ai/ha): 70
- Plant response rating, Ryegrass, Italian ([3]; 16 g ai/ha): 20
- Plant response rating, Ryegrass, Italian ([3]; 31 g ai/ha): 50
- Plant response rating, Ryegrass, Italian ([3]; 62 g ai/ha): 60
- Plant response rating, Ryegrass, Italian ([3]; 125 g ai/ha): 65
- Plant response rating, Wheat, Winter ([4]; 16 g ai/ha): 0
- Plant response rating, Wheat, Winter ([4]; 31 g ai/ha): 5
- Plant response rating, Wheat, Winter ([4]; 62 g ai/ha): 10
- Plant response rating, Wheat, Winter ([4]; 125 g ai/ha): 20
- Plant response rating, Russian Thistle ([5]; 16 g ai/ha): 10
- Plant response rating, Russian Thistle ([5]; 31 g ai/ha): 10
- Plant response rating, Russian Thistle ([5]; 62 g ai/ha): 25
- Plant response rating, Russian Thistle ([5]; 125 g ai/ha): 70
- Plant response rating, Chamomile ([6]; 16 g ai/ha): 0
- Plant response rating, Chamomile ([6]; 31 g ai/ha): 0
- Plant response rating, Chamomile ([6]; 62 g ai/ha): 5
- Plant response rating, Chamomile ([6]; 125 g ai/ha): 15
- Plant response rating, Galium ([7]; 16 g ai/ha): 70
- Plant response rating, Galium ([7]; 31 g ai/ha): 85
- Plant response rating, Galium ([7]; 62 g ai/ha): 90
- Plant response rating, Galium ([7]; 125 g ai/ha): 100
- Plant response rating, Mustard, Wild ([8]; 16 g ai/ha): 70
- Plant response rating, Mustard, Wild ([8]; 31 g ai/ha): 70
- Plant response rating, Mustard, Wild ([8]; 62 g ai/ha): 100
- Plant response rating, Mustard, Wild ([8]; 125 g ai/ha): 100
- Plant response rating, Bromegrass, Downy ([9]; 16 g ai/ha): 30
- Plant response rating, Bromegrass, Downy ([9]; 31 g ai/ha): 35
- Plant response rating, Bromegrass, Downy ([9]; 62 g ai/ha): 40
- Plant response rating, Bromegrass, Downy ([9]; 125 g ai/ha): 60
- Plant response rating, Field Poppy ([10]; 16 g ai/ha): 55
- Plant response rating, Field Poppy ([10]; 31 g ai/ha): 75
- Plant response rating, Field Poppy ([10]; 62 g ai/ha): 100
- Plant response rating, Field Poppy ([10]; 125 g ai/ha): 100
- Plant response rating, Bluegrass ([11]; 16 g ai/ha): 50
- Plant response rating, Bluegrass ([11]; 31 g ai/ha): 50
- Plant response rating, Bluegrass ([11]; 62 g ai/ha): 60
- Plant response rating, Bluegrass ([11]; 125 g ai/ha): 70
- Plant response rating, Windgrass ([12]; 16 g ai/ha): 25
- Plant response rating, Windgrass ([12]; 31 g ai/ha): 40
- Plant response rating, Windgrass ([12]; 62 g ai/ha): 50
- Plant response rating, Windgrass ([12]; 125 g ai/ha): 60
- Plant response rating, Oat, Wild (wild oat (Avenafatua); 16 g ai/ha): 5
- Plant response rating, Oat, Wild (wild oat (Avenafatua); 31 g ai/ha): 5
- Plant response rating, Oat, Wild (wild oat (Avenafatua); 62 g ai/ha): 50
- Plant response rating, Oat, Wild (wild oat (Avenafatua); 125 g ai/ha): 95
- Plant response rating, Arrowleaf Sida ([13]; 16 g ai/ha): 75
- Plant response rating, Arrowleaf Sida ([13]; 31 g ai/ha): 85
- Plant response rating, Arrowleaf Sida ([13]; 62 g ai/ha): 95
- Plant response rating, Arrowleaf Sida ([13]; 125 g ai/ha): 98

Compound: Fc1cccc(Oc2ncc(Cl)cn2)c1Oc1ncc(C(F)(F)F)cn1 [Compound 43, 5-chloro-2-[5-fluoro-6-[[5-(trifluoromethyl)-2-pyrimidinyl]oxy]phenoxy]pyrimidine]
- Plant response rating, Arrowleaf Sida ([13]; 31 g ai/ha): 80
- Plant response rating, Arrowleaf Sida ([13]; 125 g ai/ha): 95
